Test results: patent US10772884B2, “Sulphate salts of N-(3-(4-(3-(diisobutylamino)propyl)piperazin-1-yl)propyl)-1H-benzo[d]imidazol-2-amine, preparation thereof and use of the same” (ALZPROTECT, priority 2012, dated 2020)
Where a name gives a salt, the structure may show the parent alone.

What was measured:
[1] = salt formation results (physical form); format: physicochemical
Protocol: The hydrochloride, hydrobromide, acetate, tartrate, fumarate, malate, oxalate and sulphate salts of N-(3-(4-(3-(diisobutylamino)propyl)piperazin-1-yl)propyl)-1H-benzo[d]imidazol-2-amine were prepared according to procedures similar to those described in the previous examples or standard salt formation methods well known in the art.

[2] = Dynamic vapour sorption (DVS) with water; format: physicochemical
Protocol: Dynamic vapour sorption (DVS) analyses with water were performed on a DVS-Intrisic incubator from SMS Ltd, equipped with DVS-Intrisic Control Software 1.0.
A sample of about 5 to 10 mg, placed in an aluminium pan holder, was submitted to a full-cycle analysis (sorption followed by desorption) under the conditions described in Table 3.
The sample was pre-dried under a stream of dry filtered air until a stable mass was obtained. Relative humidity was then increased by 5% increments. At each step, the sample was allowed to increase until equilibrium is reached (dm/dt criterion), then relative humidity was increased further. Relative humidity was ramped up to 95%. After equilibration at this stage, desorption is started in a similar stepwise manner, with a sample weight allowed to stabilize after each incremental humidity decrease step.
DVS analysis was carried out according to the method described above.

[3] = XRPD analysis of crystallinity; format: physicochemical; conditions: powder, ambient
Protocol: X-ray powder diffraction (XRPD) analysis is performed on a Brüker—AXS D8 Advance diffractometer, using a copper anti-cathode, a mono-crystalline silicon sample holder and a position sensitive detector. Instrument operating conditions for X-rays pattern acquisition are described in Table 2.
The powder sample is dispersed on the silicon sample holder in a way to avoid preferred orientation (not randomly oriented crystals) and to ensure planarity of the specimen surface.

[4] = DSC analysis of crystalline phase; format: physicochemical; conditions: DSC endotherm
Protocol: DSC spectra. TA Instrument, DSC Q10.
DSC spectra were recorded on a TA DSC Q10 instrument within a temperature range of −10° C. to 300° C. or 400° C. and with 10° C. increments.

water solubility = format: physicochemical
[5] = tested on: APP metabolism in SH-5Y5Y cells (human neuroblastoma cell line overexpressing wild type human APP); assay: In vitro APP metabolism assay; format: cell-based; conditions: 0.3, 1, 3 and 10 μM, 24 h
Protocol: In Vitro APP Metabolism Assay
This assay was performed using SH-5Y5Y cells (human neuroblastoma cell line overexpressing wild type human APP) which were treated for 24 h with the sulphate salt of example 2. This test was carried out at four different compound concentrations of 0.3, 1, 3 and 10 μM. Quantification of different metabolites was achieved by western-blot analysis. CTFa, CTFβ and AICD were analysed using anti-actin ((I-19) (SC-1616 Santa Cruz Biotechnology; 1:1000 from 200 μg/ml stock) as an internal control and anti-C term APP antibody (1:250000 in washing buffer). Protein concentrations were determined by the BCA Protein Assay Kit (Thermo Scientific). Samples (20 μg total protein) were separated by 16% SDS-PAGE according to the molecular weight of each protein, and transferred to nitrocellulose membranes.

SH-5Y5Y cell line = assay: cytotoxicity CC50; format: cell-based, human; conditions: concentration at which 50% of plated cells remain alive
Protocol: In addition, it is remarked that no cytotoxicity was found for this sulphate salt, its CC50 on SH-5Y5Y cell line was found greater than 30 μM. CC50 is defined herein as the concentration at which 50% of plated cells remain alive.

APP metabolism [6] = assay: In vivo APP metabolism assay, chronic treatment 1-month; parameters: species or system Sprague Dawley rats; conditions: rats, 1 or 10 mg/kg/day in drinking water, one month
Protocol: (§1) In vivo experiments were carried out on 4-month old C57Bl6 female mice or 2-month old Sprague Dawley rats.
Chronic Treatment: 1-Month
Rats were provided for one month with 1 or 10 mg/kg/day of the compound of example 2 dissolved in their drinking water. […] The animals were sacrificed after one month and levels of CTFα and CTFβ in the frontal cortex (FC) and/or the hippocampus (HIP) were measured by western-blot analysis as previously described. Dose dependent results are shown on FIGS. 22-a and 22-b. […] The frontal cortex is generally the first region of the brain to be affected by amyloid plaques formation in abnormal APP metabolism related diseases while the hippocampus, which is highly involved in memory and recollection processes, is latterly but severely affected. The sulphate salt of example 2 thus has very positive effect on APP metabolism in both the frontal cortex and the hippocampus and could is therefore of interest in the treatment of neurodegenerative diseases, in particular for both early and advanced stages of abnormal APP metabolism related diseases.

Tau protein = assay: Chronic treatment 3-months, Tau protein phosphorylation; format: in vivo, C57Bl6 female mice; conditions: mice, 0.5, 1 or 3 mg/kg in drinking water, brain tissues
Text: Chronic Treatment: 3-Months
(§2) Neuropathological disorders are also characterized by abnormal phosphorylation of Tau protein (AT100). Hyperphosphorylation of the tau protein (on specific sites) can result in the intracellular accumulation of neurofibrillary tangles (NFTs), involved in the pathogenesis of Alzheimer's disease and other tauopathies. One axis of the study was thus to study the effect of the sulphate salt of example 2 on this abnormal phosphorylation. In parallel, such effect was also monitored with regards to the non-pathological phosphorylation of Tau protein (AT8) which should remain unaffected. Another axis of this study was thus the impact of the sulphate salt of example 2 on oxidative stress (OS). Therefore, levels of lipidic peroxidation, a well known marker for the evaluation of oxidative stress, were determined. Indeed, oxidative stress (OS), by the generation of toxic reactive oxygen species (ROS) and oxidative damage (oxidation of vital cellular components as lipids, proteins and DNA), is believed to be involved in the pathogenesis of neurodegenerative disorders. […]
4-month old C57Bl6 female mice were provided with 0.5, 1 or 3 mg/kg of compound of example 2 dissolved in their drinking water. […] Volume consumed was calculated by weighing each bottle after each week and the remaining volume was discarded. […]

lipid peroxidation = assay: Chronic treatment 3-months, LPO levels (modified FOX assay); format: in vivo, C57Bl6 female mice; conditions: mice, 0.5, 1 or 3 mg/kg in drinking water, hippocampi
Text: as §2, with “determined.” for “determined. Indeed, oxidative stress (OS), by the generation of toxic reactive oxygen species (ROS) and oxidative damage (oxidation of vital cellular components as lipids, proteins and DNA), is believed to be involved in the pathogenesis of neurodegenerative disorders.”
4-month old C57Bl6 female mice were provided with 0.5, 1 or 3 mg/kg of compound of example 2 dissolved in their drinking water. […] Volume consumed was calculated by weighing each bottle after each week and the remaining volume was discarded.
LPO levels measurements: the level of lipid peroxidation in hippocampi is determined as cumene hydroperoxide (CHP) equivalents and expressed as CHP equivalents per wet weight of tissue and as percentage of control group data following the modified FOX assay.

APP metabolism [7] = assay: In vivo APP metabolism assay, acute treatment 24 h p.o.; parameters: species or system C57Bl6 female mice
Protocol: In Vivo APP Metabolism Assay
as §1
Acute treatment: 24 h p.o.
C57Bl6 female mice were treated per os (gavage) with vehicle or compound (example 2) at 0.25, 0.5, 1, 3 and 6 mg/kg mg/kg (n=6 per group) for 24 h. The product was administered with a disposable Rodent Feeding Tube ECIMED Ref # V0104030 (4 mm×30 mm). The animals were sacrificed after 24 h, the brain was immediately removed for dissection. Levels of CTFα in the frontal cortex (FC) and/or the hippocampus (HIP) were measured by western-blot analysis as previously described. Briefly, tissues were homogenized with […], of lysis buffer (10 mL of Laemmli Pre-Lysis Buffer and 1 tablet of Protease Inhibitor cocktail Complete Mini (Roche)) in a potter. After sonication (5 min), homogenates were centrifuged at 1600 rpm 5 min 4° C. Supernatants were aliquoted and stored at −80° C. before western blot analysis.

[8] = sample left standing open to the air (hygroscopicity, stability); format: physicochemical; conditions: listed as chloride salt
Text: Both sulphate salts precipitated as solids. They were found stable when left open to the air. In contrast to the chloride salt, no hygroscopicity issue was observed.

Compound: Sulphate
- Physical form ([1]; Acid eq. added 1): Crystalline powder (colorless
- Physical form ([1]; Acid eq. added 2): Crystalline powder (colorless

Compound: CC(C)CN(CCCN1CCN(CCCNc2nc3ccccc3[nH]2)CC1)CC(C)C.O=S(=O)(O)O [Example 3, N-(3-(4-(3-(diisobutylamino)propyl)piperazin-1-yl)propyl)-1H-benzo[d]imidazol-2-amine, 1 eq sulphate salt]
- mass lost upon drying ([2]; 25° C./0% RH): 0.18%
- remaining amount of water upon desorption ([2]; 25° C./0% RH): 4.6%
- hygroscopicity (criterion: more than 2% by weight water uptake) ([2]; 25° C./60% RH): not hygroscopic
- water uptake upon sorption ([2]; 25° C./60% RH, compared to sample mass after initial drying at 0% RH): 0.7%
- residual water remaining upon desorption ([2]; 25° C./75% RH as printed, interval 95 to 90% RH): 10%
- hysteresis (adsorbed water retained upon desorption) ([2]; 25° C./75% RH, interval 75 to 10% RH): up to 6.7%
- water uptake upon sorption ([2]; 25° C./80% RH, compared to sample mass after initial drying at 0% RH): 1.5%
- water uptake upon sorption ([2]; 25° C./90% RH, compared to sample mass after initial drying at 0% RH): 9.7%
- water vapour uptake upon sorption ([2]; 25° C./95% RH, compared to sample mass after initial drying at 0% RH): 19.4%
- crystallinity by XRPD [3]: good crystallinity

Compound: CC(C)CN(CCCN1CCN(CCCNc2nc3ccccc3[nH]2)CC1)CC(C)C [Example 4, N-(3-(4-(3-(diisobutylamino)propyl)piperazin-1-yl)propyl)-1H-benzo[d]imidazol-2-amine, 2 eq sulphate salt]
- crystallinity by XRPD [3]: good crystallinity

Compound: CC(C)CN(CCCN1CCN(CCCNc2nc3ccccc3[nH]2)CC1)CC(C)C [Example 1, N-(3-(4-(3-(diisobutylamino)propyl)piperazin-1-yl)propyl)-1H-benzo[d]imidazol-2-amine, 2.9 eq sulphate salt]
- crystallinity by XRPD ([3]; sulphate salt): well good crystalline phase

Compound: CC(C)CN(CCCN1CCN(CCCNc2nc3ccccc3[nH]2)CC1)CC(C)C.O.O.O=S(=O)(O)O [di-hydrated form of example 3, di-hydrated form of N-(3-(4-(3-(diisobutylamino)propyl)piperazin-1-yl)propyl)-1H-benzo[d]imidazol-2-amine, 1 eq sulphate salt]
- stability and hygroscopicity in second DVS cycle ([2]; 25° C., second sorption/desorption cycle): stable and non hygroscopic
- water uptake for the di-hydrated form, experimentally determined ([2]; DVS 25° C.): 6.7%
- theoretical water uptake for the di-hydrated form ([2]; calculated): 6.8%

Compound: Fumarate
- crystalline phase by DSC [4]: not crystalline
- Physical form ([1]; Acid eq. added 1): Not crystalline^2

Compound: Tartrate
- crystalline phase by DSC [4]: not crystalline
- Physical form ([1]; Acid eq. added 1): Not crystalline^2

Compound: Oxalate
- Physical form ([1]; Acid eq. added 2): Gum
- Physical form ([1]; Acid eq. added 3): Gum
- Physical form ([1]; Acid eq. added 4): Crystalline powder

Compound: Malate
- Physical form ([1]; Acid eq. added 1): Powder

Compound: CC(C)CN(CCCN1CCN(CCCNc2nc3ccccc3[nH]2)CC1)CC(C)C [Example 2, N-(3-(4-(3-(diisobutylamino)propyl)piperazin-1-yl)propyl)-1H-benzo[d]imidazol-2-amine, 1.8 eq sulphate salt]
- water solubility (water solubility): remarkable high solubility
- Aβ1-42 levels [5]: decreased level
- sAPPα levels [5]: dose dependent increased levels
- AICD levels ([5]; western-blot): dose dependent increased levels
- CTFα levels ([5]; western-blot): dose dependent increased levels
- CC50 (SH-5Y5Y cell line): > 30 µM
- CTFα levels in the frontal cortex (APP metabolism [6]): increasing concentrations
- CTFβ levels in the hippocampus (APP metabolism [6]): decreasing concentrations
- AT8 levels (normal Tau protein phosphorylation) (Tau protein): not affecting
- AT100 levels (pathological Tau protein phosphorylation) (Tau protein): decreases
- LPO levels (lipid peroxidation): significant decrease
- CTFα levels in the frontal cortex, comparison to the oxalate salt of WO2006/051489 (APP metabolism [7]; mice, 6 mg/kg per os): superior efficiency
- CTFα levels in the frontal cortex (APP metabolism [7]; mice, 0.25, 0.5, 1, 3 and 6 mg/kg per os): increasing concentrations

Compound: CC(=O)O [Acetate]
- Physical form ([1]; Acid eq. added 1): No solid formed, oily residue
- Physical form ([1]; Acid eq. added 2): No solid formed, oily residue

Compound: Cl [Chloride]
- hygroscopicity [8]: very hygroscopic

Compound: CC(C)CN(CCCN1CCN(CCCNc2nc3ccccc3[nH]2)CC1)CC(C)C.O=C(O)C(=O)O.O=C(O)C(=O)O.O=C(O)C(=O)O.O=C(O)C(=O)O [4 eq oxalate salt, N-(3-(4-(3-(diisobutylamino)propyl)piperazin-1-yl)propyl)-1H-benzo[d]imidazol-2-amine, 4 eq oxalate salt, reference compound]
- crystalline phase by DSC [4]: most well shaped and defined endotherm
- crystallinity by XRPD [3]: little or poor crystallinity
